According to patent publication US10934311B2, “Heterocyclic compound used as FGFR inhibitor” (Hangzhou Innogate Pharma Co., Ltd., priority 2016, dated 2021):

How the values were obtained:
[1] = target: FGFR2 (Homo sapiens, UniProt P21802); assay: FGFR2 kinase activity inhibition (Caliper mobility shift assay); assay type: biochemical; details: read-out: FGFR kinase activity inhibition (IC50, nM) FGFR2
Protocol: (§1) 1. FGFR1, FGFR2, FGFR3, and FGFR4 Kinase Activity Inhibition Experiments The FGFR1, FGFR2, FGFR3, and FGFR4 protein kinase activities were measured using the Caliper mobility shift assay. Compounds were solubilized in DMSO and diluted in kinase buffer. 5 µL of compound at 5 times final concentration (10% DMSO) was added to a 384-well plate. 10 μL of a 2.5-fold enzyme (FGFR1, FGFR2, FGFR3, and FGFR4, respectively) solution was added and incubated at room temperature for 10 minutes, followed by the addition of […] of a 2.5-fold substrate (FAM-labeled peptide and ATP) solution. The reaction was incubated for 30-60 minutes at 28° C., then stopped by adding 25 μL of stop solution (pH 7.5 100 mM HEPES, 0.015% Brij-35, 0.2% Coating Reagent #3, 50 mM EDTA). Conversion data was read on the Caliper EZ Reader II (Caliper Life Sciences). The conversion rate was converted into inhibition rate (% inhibition rate=(max−sample conversion rate)/(max−min)*100). Where max refers to the conversion of the DMSO control and min refers to the conversion of the non-enzymatic live control. With the compound concentration and inhibition rate plotted on the abscissa and the vertical axis, the curve was fitted using XLFit excel add-in version 4.3.1 software and the IC50 was calculated.

[2] = target: FGFR1 (Homo sapiens, UniProt P11362); assay: FGFR1 kinase activity inhibition (Caliper mobility shift assay); assay type: biochemical; details: read-out: FGFR kinase activity inhibition (IC50, nM) FGFR1
Sequence of FGFR1 (P11362 22-822): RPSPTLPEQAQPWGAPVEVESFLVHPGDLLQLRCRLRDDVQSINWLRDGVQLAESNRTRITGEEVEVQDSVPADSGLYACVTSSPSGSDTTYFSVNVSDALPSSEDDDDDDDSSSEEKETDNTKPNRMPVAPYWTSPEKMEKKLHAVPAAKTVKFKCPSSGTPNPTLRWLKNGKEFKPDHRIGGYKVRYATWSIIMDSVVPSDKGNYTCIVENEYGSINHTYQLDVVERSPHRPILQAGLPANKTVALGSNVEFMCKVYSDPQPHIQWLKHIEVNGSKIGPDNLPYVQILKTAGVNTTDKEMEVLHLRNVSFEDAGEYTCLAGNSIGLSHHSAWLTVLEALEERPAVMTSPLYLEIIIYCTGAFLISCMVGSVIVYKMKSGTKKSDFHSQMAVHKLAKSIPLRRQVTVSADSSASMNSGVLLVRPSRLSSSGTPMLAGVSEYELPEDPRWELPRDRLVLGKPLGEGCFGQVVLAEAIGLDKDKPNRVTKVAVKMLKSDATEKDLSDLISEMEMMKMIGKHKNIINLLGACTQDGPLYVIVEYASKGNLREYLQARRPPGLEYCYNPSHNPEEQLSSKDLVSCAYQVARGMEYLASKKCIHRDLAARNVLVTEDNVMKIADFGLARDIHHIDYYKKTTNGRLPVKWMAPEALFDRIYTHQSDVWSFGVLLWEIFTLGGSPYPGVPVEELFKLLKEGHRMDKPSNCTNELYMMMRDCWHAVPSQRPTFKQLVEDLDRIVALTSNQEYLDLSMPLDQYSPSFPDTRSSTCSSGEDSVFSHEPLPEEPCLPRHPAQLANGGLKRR
Protocol: as §1

[3] = system: SNU-16 tumor cells; assay: Inhibition test against SNU-16 tumor cell proliferation (CTG); assay type: cell-based; details: Homo sapiens, 72 hours drug treatment, CTG readout, read-out: Inhibits of SNU-16 tumor cells proliferation (IC50, nM) SNU-16
Protocol: 2. Compounds' Inhibition Test Against SNU-16 Tumor Cell Proliferation
SNU-16 cell suspension was adjusted to 5.56×10e4/mL with RPMI 1640 medium. Add 90 μL of cell suspension to 96-well cell culture plates per well for a final cell concentration of 5000 cells/well. The test compound was dissolved in DMSO as a 10 mM stock solution. The 3× series of serial dilutions were prepared with stock and DMSO and then diluted 100-fold with media. Finally, 10 μL of the corresponding 10× solution was added to each well of each cell, and each drug concentration was 2 replicates. The final concentration of each compound was 1000 nM, 333.3 nM, 111.1 nM, 37.04 nM, 12.35 nM, 4.115 nM, 1.372 nM, 0.457 nM, 0.152 nM, the final concentration of DMSO per well is 0.1%. Place in a 37° C., 5% CO2 incubator for 72 hours. After 72 hours of drug treatment, add 50 μL (1/2 culture volume) of CTG solution that has been previously thawed and equilibrated to room temperature per well according to CTG instructions, mix for 2 minutes using a microplate shaker, and allow to stand at room temperature for 10 minutes. The Envision 2104 reader was used to determine the […] signal value. Cell viability formula: Vsample/Vvehicle control×100% for calculation. Wherein Vsample is the reading of the drug treatment group and, Vvehicle control is the average of the solvent control group. Using the GraphPad Prism 5.0 software, a sigmoidal dose-survival curve was plotted using a non-linear regression model and IC50 values were calculated.

[4] = target: FGFR4 (Homo sapiens, UniProt P22455); assay: FGFR4 kinase activity inhibition (Caliper mobility shift assay); assay type: biochemical; details: read-out: FGFR kinase activity inhibition (IC50, nM) FGFR4
Sequence of FGFR4 (P22455 22-802): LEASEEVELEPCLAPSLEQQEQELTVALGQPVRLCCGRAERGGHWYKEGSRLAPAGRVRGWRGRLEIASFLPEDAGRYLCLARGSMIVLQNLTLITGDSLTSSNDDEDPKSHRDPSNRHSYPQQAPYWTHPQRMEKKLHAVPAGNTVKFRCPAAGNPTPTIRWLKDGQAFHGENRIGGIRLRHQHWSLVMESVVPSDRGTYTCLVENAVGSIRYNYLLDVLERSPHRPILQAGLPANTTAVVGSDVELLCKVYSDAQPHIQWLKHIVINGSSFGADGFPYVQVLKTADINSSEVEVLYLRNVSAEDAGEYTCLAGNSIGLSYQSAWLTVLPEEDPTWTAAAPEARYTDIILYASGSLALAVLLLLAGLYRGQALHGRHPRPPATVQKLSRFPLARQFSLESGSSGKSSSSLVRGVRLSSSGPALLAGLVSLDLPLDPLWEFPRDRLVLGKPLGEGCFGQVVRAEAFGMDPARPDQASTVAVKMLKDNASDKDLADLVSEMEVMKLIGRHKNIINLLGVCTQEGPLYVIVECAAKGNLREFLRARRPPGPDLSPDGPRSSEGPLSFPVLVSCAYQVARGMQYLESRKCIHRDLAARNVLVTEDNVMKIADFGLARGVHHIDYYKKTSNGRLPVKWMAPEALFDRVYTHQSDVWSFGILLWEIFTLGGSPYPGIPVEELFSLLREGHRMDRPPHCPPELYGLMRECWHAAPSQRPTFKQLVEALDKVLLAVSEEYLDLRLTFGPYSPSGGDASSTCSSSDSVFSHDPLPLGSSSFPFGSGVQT
Protocol: as §1

[5] = target: FGFR3 (Homo sapiens, UniProt P22607); assay: FGFR3 kinase activity inhibition (Caliper mobility shift assay); assay type: biochemical; details: read-out: FGFR kinase activity inhibition (IC50, nM) FGFR3
Sequence of FGFR3 (P22607 23-806): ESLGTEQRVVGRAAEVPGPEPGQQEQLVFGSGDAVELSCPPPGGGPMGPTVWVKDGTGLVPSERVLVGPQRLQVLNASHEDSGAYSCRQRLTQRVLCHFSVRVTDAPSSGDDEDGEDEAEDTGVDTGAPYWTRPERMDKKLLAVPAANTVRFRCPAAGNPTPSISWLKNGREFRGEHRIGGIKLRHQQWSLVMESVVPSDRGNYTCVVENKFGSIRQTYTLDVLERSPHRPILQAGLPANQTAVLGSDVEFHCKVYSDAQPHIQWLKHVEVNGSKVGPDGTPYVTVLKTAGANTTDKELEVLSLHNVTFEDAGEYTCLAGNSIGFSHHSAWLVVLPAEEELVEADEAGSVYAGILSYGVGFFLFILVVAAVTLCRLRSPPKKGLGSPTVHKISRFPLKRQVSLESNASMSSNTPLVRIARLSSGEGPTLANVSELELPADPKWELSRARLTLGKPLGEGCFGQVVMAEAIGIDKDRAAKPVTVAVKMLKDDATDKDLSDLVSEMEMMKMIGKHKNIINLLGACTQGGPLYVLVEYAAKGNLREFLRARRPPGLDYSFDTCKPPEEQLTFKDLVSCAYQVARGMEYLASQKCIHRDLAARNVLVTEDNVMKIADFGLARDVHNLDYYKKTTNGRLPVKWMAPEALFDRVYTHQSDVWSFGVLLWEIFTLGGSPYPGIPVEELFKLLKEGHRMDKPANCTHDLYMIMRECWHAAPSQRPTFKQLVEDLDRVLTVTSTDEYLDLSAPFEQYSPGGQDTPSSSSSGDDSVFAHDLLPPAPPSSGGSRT
Protocol: as §1

Sequence of FGFR2 (P21802 22-821): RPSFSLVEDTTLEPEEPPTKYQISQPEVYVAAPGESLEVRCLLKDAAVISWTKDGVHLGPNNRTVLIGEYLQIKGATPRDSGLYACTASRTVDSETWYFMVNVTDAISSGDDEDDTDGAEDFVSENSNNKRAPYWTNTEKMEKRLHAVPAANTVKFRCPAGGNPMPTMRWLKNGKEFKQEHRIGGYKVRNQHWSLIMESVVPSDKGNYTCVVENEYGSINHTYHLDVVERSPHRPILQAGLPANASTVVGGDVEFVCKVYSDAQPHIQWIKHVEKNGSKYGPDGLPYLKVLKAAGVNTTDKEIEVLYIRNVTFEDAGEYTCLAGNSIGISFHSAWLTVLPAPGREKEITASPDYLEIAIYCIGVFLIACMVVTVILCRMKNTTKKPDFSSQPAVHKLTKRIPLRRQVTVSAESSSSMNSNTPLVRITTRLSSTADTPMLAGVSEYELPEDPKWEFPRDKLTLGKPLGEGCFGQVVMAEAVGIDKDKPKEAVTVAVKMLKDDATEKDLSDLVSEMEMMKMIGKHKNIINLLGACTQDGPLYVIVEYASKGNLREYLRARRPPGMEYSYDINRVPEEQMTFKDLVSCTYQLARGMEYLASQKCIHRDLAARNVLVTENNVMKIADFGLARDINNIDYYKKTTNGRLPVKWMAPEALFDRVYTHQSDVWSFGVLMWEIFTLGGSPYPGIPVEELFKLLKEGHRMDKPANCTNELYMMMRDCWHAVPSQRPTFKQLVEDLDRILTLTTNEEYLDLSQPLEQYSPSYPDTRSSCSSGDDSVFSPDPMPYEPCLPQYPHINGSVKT

For `CCN1CCN2c3ccc(Nc4cc(N(C)C(=O)Nc5c(Cl)c(OC)cc(OC)c5Cl)ncn4)cc3OC[C@@H]2C1` [Compound 4S], the IC50 [1] was < 10 nM, the IC50 [2] was < 10 nM and the IC50 [3] was < 10 nM. The IC50 [4] was < 200 nM and the IC50 [5] was < 10 nM.
With `COc1cc(OC)c(Cl)c(NC(=O)N(C)c2cc(Nc3ccc4c(c3)OC[C@H]3CN(C(C)=O)CCN43)ncn2)c1Cl` [Compound 7R] the IC50 [1] was < 10 nM and the IC50 [2] was < 10 nM.
For `COc1cc(OC)c(Cl)c(NC(=O)N(C)c2cc(Nc3ccc(N4CC5CN(C)CC(C4)C5(F)F)cc3)ncn2)c1Cl` [Compound 3], the IC50 [2] was < 10 nM, the IC50 [3] was < 10 nM and the IC50 [5] was < 10 nM.
In the case of `CCN1CCN2c3ccc(Nc4cc(N(C)C(=O)Nc5c(Cl)c(OC)cc(OC)c5Cl)ncn4)cc3OC[C@H]2C1` [Compound 4R], the IC50 [1] is reported as < 10 nM and the IC50 [2] is reported as < 10 nM.
For `COc1cc(OC)c(Cl)c(NC(=O)N(C)c2cc(Nc3ccc4c(c3)OC[C@H]3CN(C5CC5)CCN43)ncn2)c1Cl` [Compound 6R], the IC50 [1] was < 50 nM and the IC50 [2] was < 20 nM.
`COc1cc(OC)c(Cl)c(NC(=O)N(C)c2cc(Nc3ccc4c(c3)OCCN(C)CCO4)ncn2)c1Cl` [Compound 1] was tested, and the IC50 [2] was < 20 nM and the IC50 [5] was < 20 nM.
With `COc1cc(OC)c(Cl)c(NC(=O)N(C)c2cc(Nc3ccc4c(c3)OCC3CN(C)CCN43)ncn2)c1Cl` (stereo not shown) [Compound 2] the IC50 [2] was < 10 nM and the IC50 [5] was < 10 nM.
`COc1cc(OC)c(Cl)c(NC(=O)N(C)c2cc(Nc3ccc4c(c3)OC[C@H]3COCCN43)ncn2)c1Cl` [Compound 8R] was tested, and the IC50 [1] was < 20 nM and the IC50 [2] was < 20 nM.
For `COc1cc(OC)c(Cl)c(NC(=O)N(C)c2cc(Nc3ccc4c(c3)OC[C@@H]3CN(C)CCN43)ncn2)c1Cl` [Compound 2S], the IC50 [1] was < 10 nM, the IC50 [2] was < 10 nM and the IC50 [3] was < 10 nM. For the same compound, the IC50 [4] was < 200 nM and the IC50 [5] was < 10 nM.
For `C=CC(=O)Nc1cc2c(cc1Nc1cc(N(C)C(=O)Nc3c(Cl)c(OC)cc(OC)c3Cl)ncn1)OC[C@@H]1CN(C)CCN21` [Compound 5S], the IC50 [1] was > 1000 nM, the IC50 [2] was > 1000 nM and the IC50 [4] was < 20 nM. For the same compound, the IC50 [5] was > 1000 nM.
For `CCS(=O)(=O)N1CCN2c3ccc(Nc4cc(N(C)C(=O)Nc5c(Cl)c(OC)cc(OC)c5Cl)ncn4)cc3OC[C@H]2C1` [Compound 10R], the IC50 [1] was < 50 nM and the IC50 [2] was < 50 nM.
With `COc1cc(OC)c(Cl)c(NC(=O)N(C)c2cc(Nc3ccc4c(c3)OC[C@H]3CN(C)CC(=O)N43)ncn2)c1Cl` [Compound 9R] the IC50 [1] was < 10 nM and the IC50 [2] was < 10 nM.
`C=CC(=O)Nc1ccc(CN(C(=O)Nc2c(Cl)c(OC)cc(OC)c2Cl)c2cc(Nc3ccc4c(c3)OC[C@@H]3CN(C)CCN43)ncn2)cc1` [Compound 11S] was tested, and the IC50 [2] was < 50 nM and the IC50 [4] was < 200 nM.
`COc1cc(OC)c(Cl)c(NC(=O)N(C)c2cc(Nc3ccc4c(c3)OC[C@H]3CN(C)CCN43)ncn2)c1Cl` [Compound 2R] was tested, and the IC50 [1] was < 10 nM, the IC50 [2] was < 10 nM and the IC50 [3] was < 10 nM. For the same compound, the IC50 [4] was < 200 nM and the IC50 [5] was < 10 nM.
